ChEMBL document CHEMBL6103617, “Chromene Dimers from Cultures of Basidiomycete Panus similis” (J Nat Prod, 2025)

Tests used:
[1] = Antioxidant activity assessed as DPPH radical scavenging activity incubated for 30 min by DPPH assay; type: functional
NCI-H187 = assay: Cytotoxicity against human NCI-H187 cells by resazurin staining based analysis; type: functional, cell-based
MCF7 = assay: Cytotoxicity against human MCF7 cells by resazurin staining based analysis; type: functional, cell-based
[2] = Cytotoxicity against African green monkey Vero cells by green fluorescent protein-based assay; type: toxicity, cell-based; conditions: African green monkey (Chlorocebus sabaeus)

Structure (SMILES) | IC50 [1] | IC50 (NCI-H187) | IC50 (MCF7) | IC50 [2]
CC1(C)Oc2ccc(O)cc2C(O)C1O (stereo not given) | > 1900 µM | 9.1 µM | > 240 µM | > 240 µM
COc1ccc2c(c1)C(O)C(O)C(C)(C)O2 (stereo not given) | > 1800 µM | > 230 µM | > 220 µM | 220 µM
CC1(C)C=Cc2cc3c(cc2O1)O[C@@H]1c2cc(O)c(O)cc2OC(C)(C)[C@@H]1O3 (racemic) | 370 µM | 45 µM | 66 µM | 46 µM
COc1cc2c(cc1O)OC(C)(C)C(O)C2 (racemic) | 180 µM | 55 µM | > 220 µM | > 220 µM
COc1cc2c(cc1O)OC(C)(C)[C@H]1[C@H]3[C@@H](O[C@@H]21)c1cc(OC)c(O)cc1OC3(C)C (racemic) | 540 µM | > 120 µM | > 120 µM | > 120 µM
CC1(C)Oc2cc(O)c(O)cc2[C@@H]2O[C@H]3c4cc(O)c(O)cc4OC(C)(C)[C@H]3[C@@H]21 (racemic) | 66 µM | 48 µM | > 130 µM | > 130 µM
O=C1O[C@H]([C@@H](O)CO)C(O)=C1O [ASCORBIC ACID] | 68 µM | – | – | –
COc1cccc2c1C(=O)c1c(O)c3c(c(O)c1C2=O)C[C@@](O)(C(=O)CO)C[C@@H]3O[C@H]1C[C@H](N)[C@H](O)[C@H](C)O1 [DOXORUBICIN] | – | 0.084 µM | 12 µM | –
Cc1c2ccncc2c(C)c2c1[nH]c1ccccc12 [ELLIPTECINE] | – | 7.8 µM | – | > 5.4 µM
CC/C(=C(\c1ccccc1)c1ccc(OCCN(C)C)cc1)c1ccccc1 [TAMOXIFEN] | – | – | 23 µM | –
